Values quoted from earlier work in US20070259053A1, “Inhibition of nephrotoxicity induced by Trasylol® and like agents” (priority 2006, published 2007).
Like-named read-outs stand apart in the source and are kept apart here.

What was measured:
[1] = test system: renal accumulation of gentamicin
[2] = test system: renal accumulation of lysozyme; settings: microinfusion experiments
[3] = test system: toxic effects of spermine and gentamicin
[4] = test system: isolated renal brush border membranes; settings: for effect on binding of gentamicin to isolated renal brush border membranes: isolated BBM
[5] = test system: renal toxic effects of cisplatin; settings: rat
[6] = test system: renal toxic effects of cisplatin; settings: bird
BBM = settings: for effect on binding of albumins of increased isoelectric points to BBM: b13: pH 6.5, pI 8.5 albumins
[7] = test system: gentamicin induced renal toxic effects
[8] = test system: mercury induced acute renal failure; settings: in vivo
kidney = settings: noted by autoradiography

C[n+]1cccc(C(N)=O)c1 [N′-methylnicotinamide]
effect on renal accumulation of gentamicin ([1]; rats): inhibited
effect on urinary excretion of gentamicin ([1]; rats): increased

cytochrome C
effect on renal accumulation of lysozyme [2]: inhibited

Cc1ncc(COP(=O)(O)O)c(C=O)c1O [pyridoxal 5′-phsophate, pyridoxal 5′-phosphate]
effect on toxic effects of gentamicin ([3]; in vivo): inhibited
effect on toxic effects of spermine ([3]; positively charged renal toxin spermine): inhibited

Myoglobin
effect on renal accumulation of lysozyme [2]: without effect

tetralysine
effect on uptake of gentamicin in rat renal cortex ([1]; rat renal cortex): inhibited

ribonuclease
effect on renal accumulation of lysozyme [2]: inhibited

NCCCNCCCCNCCCN [spermine]
effect on uptake of gentamicin by renal tubular BBM ([4]; renal tubular BBM): inhibited
effect on renal accumulation of lysozyme [2]: inhibited

C=C[C@H]1C[N@@]2CC[C@H]1C[C@H]2[C@H](O)c1ccnc2ccc(OC)cc12 [quinine]
effect on renal toxic effects of cisplatin [5]: provided protection
effect on renal toxic effects of cisplatin [6]: provided protection

[Ca+2] [calcium]
effect on binding of lysozyme to BBM (BBM): decreased
effect on binding of albumins of increased isoelectric points to BBM (BBM): decreased
effect on binding of albumins of increased isoelectric points to BBM (BBM; listed as Ca^++): inhibited
effect on binding of lysozyme to BBM (BBM; listed as Ca^++): inhibited
effect on binding of gentamicin to isolated renal brush border membranes [4]: competitive inhibitor

N.N.[Cl][Pt][Cl] [cisplatin]
effect on transport of N′-methylnicotinamide into vesicles of BBM (vesicles of BBM): inhibited
effect on transport of tetraethylamonium (TEA) into vesicles of BBM (vesicles of BBM): inhibited
effect on uptake of TEA (mouse kidney): inhibited
effect on uptake of p-aminohipputate (mouse kidney): inhibited

NCCCC[C@H](N)C(=O)O [lysine]
effect with the renal toxic effects of gentamicin ([7]; given with gentamicin): additive effect
effect on renal accumulation of lysozyme [2]: inhibited

Clc1cccc(Cl)c1N=C1NCCN1 [Clonidine]
effect on gentamicin induced renal toxic effects ([7]; rat kidney): inhibited
effect on mercury induced acute renal failure [8]: protected

N=C(N)NCCC[C@H](N)C(=O)O [L-arginine]
effect on renal accumulation of lysozyme [2]: inhibited

[Cd] [cadmium]
effect on gentamicin accumulation in the renal cortex ([1]; cadmium treated animals): reduced

aprotinin
time after administration at which level peaked in the kidney (kidney): 72 h
effect on binding of gentamicin to isolated renal brush border membranes [4]: inhibited
effect on renal absorption of gentamicin ([1]; in vivo): did not unambiguously inhibit

polylycine
effect on binding of gentamicin to isolated renal brush border membranes [4]: inhibited
effect on acute toxic effects of whole animal nephrotoxicity (gentamicin) ([7]; whole animal): lessened
